Reference: PMC7280195, “Simple ammonium salts acting on sigma-1 receptors yield potential treatments for cancer and depression” (Scientific Reports, 2020)
Where two headings read alike, the source gives them in different places.

What was measured:
sigma-2 receptor = biological target: T1, sigma-2 receptor (Homo sapiens, UniProt Q5BJF2); experiment: biochemical; assay type: binding
T1 construct: MCF7 cells were suspended in sigma-2 assay buffer (50 mM Tris-HCl; pH 8.0), sonicated (1 minute) and the homogenate was centrifuged; endogenous in cells; host or cells: MCF7 cells (gift), membrane pellet

[1] = biological target: noradrenaline transporter; conditions: read-out: Ki noradrenaline transport, previously published; cited from earlier work
mice [2] = experiment: Forced-swim test; assay type: in vivo
mice [3] = experiment: Tail suspension test; assay type: in vivo; conditions: 10 mg.kg−1, 6 minutes; control 235 ± 19
Method: Animals were acclimatised to laboratory conditions before the experiment. Each animal was used only once. […] All drugs were dissolved in normal saline and different doses were administered intraperitoneally in a fixed volume of 1 ml.100 g^−1 body weight 30 minutes before the animals were subjected to the test. […] Each mouse was considered immobile when it hung passively and completely motionless. The total immobility period was recorded and compared to vehicle control group.

MDA-MB-468 cells [4] = experiment: Fura-2 cytoplasmic calcium measurement in MDA-MB-468 cells; assay type: cell-based
MAC13 cells = experiment: MTS assay in MAC13 cells in vitro; assay type: cell-based, mouse; conditions: mean ± SEM, n = 6
Method: Cells (10,000 cells per well, 100 μl) were seeded into 96-well plates and allowed to adhere overnight. The following day drugs were added and cells were permitted to proliferate for 24 hours before the addition of 10 μl CellTiter 96 AQueous Non-Radioactive Cell Proliferation Assay reagent (Promega, Southampton, UK) as previously described. Absorbance (490 nm) readings were taken at 0, 1, 2 and 3 hours to monitor formazan formation and rates of metabolic activity were compared.

MDA-MB-468 cells [5] = experiment: cells; assay type: cell-based
MCF7 cells = assay type: cell-based
[6] = biological target: muscarinic acetylcholine receptor; assay type: binding, rat; conditions: for mACh R affinity pKi ± SEM (n): 1.35 nM [3H] QNB
MDA-MB-468 cells [7] = conditions: cited from earlier work
MDA-MB-468 cells [8] = conditions: cited from earlier work; remark: listed apart in the source

T1 sequence (Q5BJF2 whole entry): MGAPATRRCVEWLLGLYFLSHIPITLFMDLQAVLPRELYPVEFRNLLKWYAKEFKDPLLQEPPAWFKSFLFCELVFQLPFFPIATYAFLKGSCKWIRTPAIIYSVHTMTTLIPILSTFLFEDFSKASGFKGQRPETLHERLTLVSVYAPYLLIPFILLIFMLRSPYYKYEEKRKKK

For `CCCN(CCC)CCC` [Tripropyl], the “σ-2 R affinity pKi ± SEM (n)” value (sigma-2 receptor) was 4.36 ± 0.07 (3) and the Ki (sigma-2 receptor; read-out: σ-2 R affinity Ki) was 44 µM.
In the case of `CNCCCN1c2ccccc2CCc2ccccc21` [Desipramine, desipramine], the Ki [1] is given as 0.0043 µM.
For `NC1C2CC3CC(C2)CC1C3` (stereo not drawn) [2-adamantyl], the “σ-2 R affinity pKi ± SEM (n)” value (sigma-2 receptor) was 5.5 ± 0.2 (3) and the Ki (sigma-2 receptor; read-out: σ-2 R affinity Ki) was 3.5 µM.
For `CCCCCCN.Cl` [Hexyl], the “σ-2 R affinity pKi ± SEM (n)” value (sigma-2 receptor) was 5.1 ± 0.2 (3) and the Ki (sigma-2 receptor; read-out: σ-2 R affinity Ki) was 7.8 µM.
For `CC[N+](CC)(CC)CC` [Tetraethyl], the “σ-2 R affinity pKi ± SEM (n)” value (sigma-2 receptor) was <3 (3).
In the case of `CCCNCCC.Cl` [Dipropyl], the “σ-2 R affinity pKi ± SEM (n)” value (sigma-2 receptor) is reported as 4.10 ± 0.07 (3) and the Ki (sigma-2 receptor; read-out: σ-2 R affinity Ki) is reported as 79 µM.
With `CC(C)CN(CC(C)C)CC(C)C.Cl` [Triisobutyl] the “σ-2 R affinity pKi ± SEM (n)” value (sigma-2 receptor) was 5.46 ± 0.06 (3) and the Ki (sigma-2 receptor; read-out: σ-2 R affinity Ki) was 3.5 µM.
In the case of `CN(C)C.Cl` [Trimethyl], the “σ-2 R affinity pKi ± SEM (n)” value (sigma-2 receptor) is reported as <3 (3).
With `CN(C)CCN(C)CCc1ccc(Cl)c(Cl)c1` [BD1047, N’-[2-(3,4-dichlorophenyl)ethyl]-N,N,N’-trimethylethane-1,2-diamine, reference compound] the “time spent immobile, forced-swim test” value (mice [2]; ip, 4 mg/kg, 0.1 h) was 217 ± 17 s.
With `CCCCCCN(CCCCCC)CCCCCC` [Trihexyl, trihexylammonium] the “σ-2 R affinity pKi ± SEM (n)” value (sigma-2 receptor) was 6.63 ± 0.03 (3) and the Ki (sigma-2 receptor; read-out: σ-2 R affinity Ki) was 0.23 µM.
With `CNCCC(Oc1ccc(C(F)(F)F)cc1)c1ccccc1` (stereo not drawn) [Fluoxetine, fluoxetine, reference compound] the “time spent immobile, tail suspension test” value (mice [3]) was 126 ± 22 s and the “time spent immobile, forced-swim test” value (mice [2]; 10 mg.kg−1 i.p., 6 minutes, control 233 ± 10) was 153 ± 19 s.
For `CCCCCN` [Pentyl], the “σ-2 R affinity pKi ± SEM (n)” value (sigma-2 receptor) was 3.9 ± 0.1 (3) and the Ki (sigma-2 receptor; read-out: σ-2 R affinity Ki) was 130 µM.
For `CC(C)CNCC(C)C` [Diisobutyl], the “σ-2 R affinity pKi ± SEM (n)” value (sigma-2 receptor) was 5.2 ± 0.2 (3) and the Ki (sigma-2 receptor; read-out: σ-2 R affinity Ki) was 6.6 µM.
For `CCCCN` [Butyl], the “σ-2 R affinity pKi ± SEM (n)” value (sigma-2 receptor) was 3.26 ± 0.05 (3) and the Ki (sigma-2 receptor; read-out: σ-2 R affinity Ki) was 550 µM.
With `CCCCCCCCN.Cl` [Octyl] the “σ-2 R affinity pKi ± SEM (n)” value (sigma-2 receptor) was 5.2 ± 0.2 (3) and the Ki (sigma-2 receptor; read-out: σ-2 R affinity Ki) was 6.2 µM.
With `CCCCC(CC)CNCC(CC)CCCC` (stereo not drawn) [Bis(2-ethylhexyl), bis(2-ethylhexyl)ammonium] the “σ-2 R affinity pKi ± SEM (n)” value (sigma-2 receptor) was 4.0 ± 0.2 (3), the Ki (sigma-2 receptor; read-out: σ-2 R affinity Ki) was 91 µM and the pEC50 calcium response (MDA-MB-468 cells [4]; Fura-2 loaded MDA-MB-468 cells) was 2.9 ± 0.1. The “pIC50 reduction in MAC13 cell metabolism” value (MAC13 cells) was 5.3 ± 0.2, the “pIC50 reduction of cell metabolism” value (MDA-MB-468 cells [5]) was 3.3 ± 0.1 and the “pIC50 reduction of cell metabolism, non-targeting control” value (MDA-MB-468 cells [5]) was 3.37 ± 0.08. For the same molecule, the “effect on MCF7 cells in MTS assay” value (MCF7 cells) was “without effect”, the “mACh R affinity pKi ± SEM (n)” value ([6]; rat brain membranes) was 3.9 ± 0.2 (6) and the Ki ([6]; rat brain membranes, read-out: mACh R affinity Ki) was 120 µM. The “mACh R Ki/σ-1 R Ki” value ([6]; ratio between Ki values) was 4.1, the “MAC13 tumour growth compared to vehicle control” value (MAC13 tumours; 10 mg.kg−1 i.v. daily from day 12, P < 0.001) was “statistically significant reduction in tumour growth” and the “tolerability in tumour-bearing mice” value (MAC13 tumours; 10 mg.kg−1 i.v. daily, grooming activity maintained) was “no negative signs”.
For `N=C(Nc1ccc(I)cc1)NC1C2CC3CC(C2)CC1C3` (stereo not drawn) [IPAG, 1-(4-iodophenyl)-3-(2-adamantyl)guanidine], the pEC50 calcium signalling (MDA-MB-468 cells [7]) is given as 3.9, the EC50 (MDA-MB-468 cells [7]; read-out: EC50 calcium signalling) is given as 123 µM and the “pEC50 reduction of cellular metabolic activity” value (MDA-MB-468 cells [8]) is given as 4.6. The EC50 (MDA-MB-468 cells [8]; read-out: EC50 reduction of cellular metabolic activity) was 24 µM and the “mACh R affinity pKi ± SEM (n)” value ([6]; rat brain membranes) was 4.3.
In the case of `CCCCCCCCNCCCCCCCC` [Dioctyl, dioctylammonium], the “σ-2 R affinity pKi ± SEM (n)” value (sigma-2 receptor) is reported as 7.9 ± 0.5 (3), the Ki (sigma-2 receptor; read-out: Ki for sigma-2 receptors) is reported as 0.013 µM and the Ki (sigma-2 receptor; read-out: σ-2 R affinity Ki) is reported as 0.014 µM. The “behaviour in the calcium buffer” value (MDA-MB-468 cells [4]; calcium response could not be assessed) was “precipitation was observed” and the “pIC50 reduction of cell metabolism” value (MDA-MB-468 cells [5]) was 5.0 ± 0.2.
